One experiment addresses KRAS G12S (Homo sapiens (Human), UniProt P01116+P62937, G12S). Put plainly: Ras-Raf (BRAF RBD) disruption / FRET / MOA assay, KRAS G12S. The following applies: Ras-Raf disruption/FRET/MOA assay; class symbols; read-out: KRAS G12S FRET data IC50. The format is biochemical. The essentials: (§1)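 A 10-point, 3-fold dilution series topping at 30 μM final was incubated 3 h at 25° C with the Ras/cyclophilin A/BRAF RBD mixture.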

The target of a further experiment is NRAS G12C (Homo sapiens (Human), UniProt P01111+P62937, G12C). Put plainly: Ras-Raf (BRAF RBD) disruption / FRET / MOA assay, NRAS G12C. The format is biochemical. The following applies: read-out: IC50* NRAS G12C FRET data. The protocol:
(§2) The purpose of this biochemical assay is to measure the ability of test compounds to facilitate ternary complex formation between a nucleotide-loaded Ras isoform and cyclophilin A; the resulting ternary complex disrupts binding to a BRAF^RBD construct, inhibiting Ras signaling through a RAF effector.
(§3) Compound is present in plate wells as a 10-point 3-fold dilution series starting at a final concentration of 30 μM. After incubation at 25° C. for 3 hours, a mixture of Anti-His Eu-W1024 and anti-GST allophycocyanin is then added to assay sample wells at final concentrations of 10 nM and 50 nM, respectively, and the reaction incubated for an additional 1.5 hours. […] Compounds that facilitate disruption of a Ras:RAF complex are identified as those eliciting a decrease in the TR-FRET ratio relative to DMSO control wells.
This protocol may also be executed substituting other Ras proteins or nucleotides. […]

Experiment [1] concerns NCI-H358 cells (K-Ras G12C). The experiment in a line: Potency assay: pERK in NCI-H358 cells. The format is cell-based, human. The settings on record: H358 KRAS G12C, read-out: pERK EC50. The essentials: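 pERK decrease read by AlphaLISA SureFire p-ERK1/2 or In-Cell Western after 4 h compound exposure at 37 °C, 5% CO2.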
A further experiment addresses KRAS G12D (Homo sapiens (Human), UniProt P01116+P62937, G12D). The experiment in a line: Ras-Raf (BRAF RBD) disruption / FRET / MOA assay, KRAS G12D. The format is biochemical. The following applies: Ras-Raf disruption/FRET/MOA assay; class symbols; read-out: KRAS G12D FRET data IC50. In a few lines:
as §1

Another experiment deals with K-Ras G12C (Homo sapiens (Human), UniProt P01116+P62937, G12C). Put plainly: Ras-Raf (BRAF RBD) disruption / FRET / MOA assay, KRAS G12C. The format is biochemical. The settings on record: KRAS G12C; Ras-Raf disruption/FRET/MOA assay; read-out: IC50* KRAS G12C FRET data. The protocol:
as §2, §3
(§4) This protocol may also be executed substituting other Ras proteins or nucleotides.
(§5) The purpose of this biochemical assay was to measure the ability of test compounds to facilitate ternary complex formation between a nucleotide-loaded K-Ras isoform and Cyclophilin A; the resulting ternary complex disrupts binding to a BRAF^RBD construct, inhibiting K-Ras signaling through a RAF effector. Data is reported as IC50 values.
(§6) Compound was present in plate wells as a 10-point 3-fold dilution series starting at a final concentration of 30 μM. After incubation at 25° C. for 3 hours, a mixture of Anti-His Eu-W1024 and anti-GST allophycocyanin was then added to assay sample wells at final concentrations of 10 nM and 50 nM, respectively, and the reaction incubated for an additional 1.5 hours. […] Compounds that facilitate disruption of a K-Ras:RAF complex were identified as those eliciting a decrease in the TR-FRET ratio relative to DMSO control wells.

Another experiment has as its target KRAS G12V (Homo sapiens (Human), UniProt P01116+P62937, G12V). Put plainly: Ras-Raf (BRAF RBD) disruption / FRET / MOA assay, KRAS G12V. The format is biochemical. The following applies: read-out: IC50* KRAS G12V FRET data. How it is done: as §2, §3, §4, §5, §6
The subject of the next experiment is NCI-H358 (K-Ras G12C). Put plainly: CellTiter-Glo cell viability assay, NCI-H358. The format is cell-based, human. The settings on record: NCI-H358, 5-day treatment, class symbols, read-out: Additional H358 Cell Viability assay data (K-Ras G12C, IC50). In a few lines:
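Cells seeded, compound added directly, 5-day exposure. Plates to RT ~30 min, CellTiter-Glo luminescence read. Normalized to DMSO avg (x100); 4-parameter logistic fit.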
On the technique in general: ATP-based viability assays read luminescence as a measure of living cells.

The target in another experiment is KRAS WT (Homo sapiens (Human), UniProt P01116+P62937). Put plainly: Ras-Raf (BRAF RBD) disruption / FRET / MOA assay, KRAS WT. The following applies: read-out: IC50* KRAS WT FRET data. The format is biochemical. The protocol: as §2, §3, §4, §5, §6
A further experiment has as its target K-Ras G13C (Homo sapiens (Human), UniProt P01116+P62937, G13C). The experiment in a line: Ras-Raf (BRAF RBD) disruption / FRET / MOA assay, KRAS G13C. The settings on record: KRAS G13C; Ras-Raf disruption/FRET/MOA assay; read-out: IC50* KRAS G13C FRET data. The format is biochemical. How it is done:
as §2, §3, §4, §5, §6

Seven compounds from US11566007B2, “Ras inhibitors” (Revolution Medicines, Inc., priority 2019, dated 2023) can be followed below.

Where “and” joins values, the source holds several entries; their conditions need not be identical. Identical values can stand only once. Like-named read-outs stand apart in the source and are kept apart here.

Sequence of KRAS G12D (P01116-2 other isoform, or with tags, fused parts or gaps G12D): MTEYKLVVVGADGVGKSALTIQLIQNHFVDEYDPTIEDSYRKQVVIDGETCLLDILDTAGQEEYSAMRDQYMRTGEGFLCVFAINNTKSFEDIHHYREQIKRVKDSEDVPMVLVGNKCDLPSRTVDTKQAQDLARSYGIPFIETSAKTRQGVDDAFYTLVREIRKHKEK
Sequence of KRAS G12D (P62937 whole entry): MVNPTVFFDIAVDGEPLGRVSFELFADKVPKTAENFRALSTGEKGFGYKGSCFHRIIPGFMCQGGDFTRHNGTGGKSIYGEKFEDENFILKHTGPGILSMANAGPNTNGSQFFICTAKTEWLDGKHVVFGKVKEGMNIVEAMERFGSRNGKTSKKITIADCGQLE
Sequence of K-Ras G13C (P01116-2 other isoform, or with tags, fused parts or gaps G13C): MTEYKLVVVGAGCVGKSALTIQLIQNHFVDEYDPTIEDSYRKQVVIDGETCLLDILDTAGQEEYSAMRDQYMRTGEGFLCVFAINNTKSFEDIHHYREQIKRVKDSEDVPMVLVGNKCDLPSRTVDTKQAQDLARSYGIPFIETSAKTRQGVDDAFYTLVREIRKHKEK
Sequence of K-Ras G13C (P62937 whole entry): as the sequence (P62937 whole entry) above
Sequence of K-Ras G12C (P01116-2 other isoform, or with tags, fused parts or gaps G12C): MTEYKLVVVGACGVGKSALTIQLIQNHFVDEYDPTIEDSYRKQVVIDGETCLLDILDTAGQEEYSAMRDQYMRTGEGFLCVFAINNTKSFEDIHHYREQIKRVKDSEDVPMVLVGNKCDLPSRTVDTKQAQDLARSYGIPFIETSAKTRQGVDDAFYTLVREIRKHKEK
Sequence of K-Ras G12C (P62937 whole entry): as the sequence (P62937 whole entry) above
Sequence of KRAS G12V (P01116-2 other isoform, or with tags, fused parts or gaps G12V): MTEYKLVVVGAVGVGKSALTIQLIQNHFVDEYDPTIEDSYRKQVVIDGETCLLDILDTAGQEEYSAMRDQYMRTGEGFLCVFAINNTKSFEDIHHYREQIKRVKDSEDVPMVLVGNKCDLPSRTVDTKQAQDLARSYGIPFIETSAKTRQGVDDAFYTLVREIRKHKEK
Sequence of KRAS G12V (P62937 whole entry): as the sequence (P62937 whole entry) above
Sequence of KRAS G12S (P01116-2 other isoform, or with tags, fused parts or gaps G12S): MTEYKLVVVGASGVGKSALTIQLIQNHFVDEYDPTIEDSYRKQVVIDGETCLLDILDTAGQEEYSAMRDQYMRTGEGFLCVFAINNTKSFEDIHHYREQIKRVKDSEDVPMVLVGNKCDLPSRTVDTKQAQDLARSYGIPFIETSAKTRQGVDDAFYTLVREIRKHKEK
Sequence of KRAS G12S (P62937 whole entry): as the sequence (P62937 whole entry) above
Sequence of KRAS WT (P01116-2 other isoform, or with tags, fused parts or gaps): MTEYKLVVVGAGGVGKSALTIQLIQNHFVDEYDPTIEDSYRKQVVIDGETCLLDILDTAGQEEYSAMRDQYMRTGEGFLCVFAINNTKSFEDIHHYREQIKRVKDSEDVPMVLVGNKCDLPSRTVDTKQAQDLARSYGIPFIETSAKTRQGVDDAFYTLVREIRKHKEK
Sequence of KRAS WT (P62937 whole entry): as the sequence (P62937 whole entry) above
Sequence of NRAS G12C (P01111 whole entry G12C, canonical isoform): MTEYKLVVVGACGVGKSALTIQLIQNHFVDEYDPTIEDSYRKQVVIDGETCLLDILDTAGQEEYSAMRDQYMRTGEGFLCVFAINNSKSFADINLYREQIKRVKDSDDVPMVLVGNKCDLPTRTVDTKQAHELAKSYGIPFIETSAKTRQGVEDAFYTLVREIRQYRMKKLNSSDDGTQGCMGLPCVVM
Sequence of NRAS G12C (P62937 whole entry, canonical isoform): as the sequence (P62937 whole entry) above

Consider `C=CC(=O)N1CC[C@H](C(=O)N(C)[C@H](C(=O)N[C@H]2Cc3nc(cs3)-c3ccc4c(c3)c(c(-c3cc(C5=CCN(C)CC5)cnc3[C@H](C)OC)n4CC)CC(C)(C)COC(=O)[C@@H]3CCCN(N3)C2=O)C(C)C)C1` (atropisomer, axis not shown) [Example A521], for which the IC50 on KRAS G12S is 1 to 10 µM; on NRAS G12C it was 1 to 10 µM; on KRAS G12D, more than 10 µM; on K-Ras G12C, 1 to 10 µM. Also, the EC50 in experiment [1] (Homo sapiens, NCI-H358) was less than 5 µM.

`C=CC(=O)N(C)CCCC(=O)N(C)[C@H](C(=O)N[C@H]1Cc2cc(O)cc(c2)-c2ccc3c(c2)c(c(-c2cccnc2COC)n3CC)CC(C)(C)COC(=O)[C@@H]2CCCN(N2)C1=O)C(C)C` [Example A101]: the IC50 on KRAS G12V lay in the range of 0.1 to 1 µM; at KRAS G12S it was 0.1 to 1 µM; at KRAS G12D, 1 to 10 µM; in the experiment with NCI-H358 (K-Ras G12C) (Homo sapiens, NCI-H358, 120 h) it was 0.1 to 1 µM; on KRAS WT, 0.1 to 1 µM; on K-Ras G12C, 0.1 to 1 µM. Moreover, the IC50 on K-Ras G13C was 0.1 to 1 µM. In addition, in experiment [1] (Homo sapiens, NCI-H358), the EC50 is less than 5 µM.

For the compound `CCn1c(-c2ccccc2CCOC)c2c3cc(ccc31)-c1cc(O)cc(c1)C[C@H](NC(=O)[C@H](C(C)C)N(C)C(=O)c1ccc(NC(=O)/C=C/CN(C)C)nc1)C(=O)N1CCC[C@H](N1)C(=O)OCC(C)(C)C2` [Example A218], the IC50 at KRAS G12V was 1 to 10 µM and > 10 µM; at KRAS G12S, more than 10 µM; on KRAS G12D, 1 to 10 µM; with NCI-H358 (K-Ras G12C) (Homo sapiens, NCI-H358, 120 h), more than 1 µM; at KRAS WT, more than 10 µM; at K-Ras G12C, 0.1 to 1 µM and 1 to 10 µM. Besides, the IC50 on K-Ras G13C is 0.01 to 0.1 µM and 0.1 to 1 µM. Also, the EC50 in experiment [1] (Homo sapiens, NCI-H358) is less than 5 µM.

On to `C=CC(=O)N1CC[C@H](C(=O)N(C)[C@H](C(=O)N[C@H]2Cc3cc(O)cc(c3)-c3ccc4c(c3)c(c(-c3ccccc3CCOC)n4CC)CC(C)(C)COC(=O)[C@]3(C)CCCN(N3)C2=O)C(C)C)C1` [Example A219], for which the IC50 on KRAS G12V was more than 10 µM; on KRAS G12S, more than 10 µM; on KRAS G12D, more than 10 µM; in the experiment on NCI-H358 (K-Ras G12C) (Homo sapiens, NCI-H358, 120 h), 0.1 to 1 µM; at KRAS WT it was more than 10 µM; at K-Ras G12C it was 1 µM to 10 µM (2×) and > 10 µM (2×). Moreover, the IC50 at K-Ras G13C is more than 10 µM. Also, the 50% effective concentration (EC50) in [1] (Homo sapiens, NCI-H358) was less than 5 µM.

For the compound `CCn1c(-c2ccccc2CCOC)c2c3cc(ccc31)-c1cc(O)cc(c1)C[C@H](NC(=O)[C@H](C(C)C)N(C)C(=O)c1ccc(N(C)C(=O)/C=C/CN(C)C)cc1)C(=O)N1CCC[C@H](N1)C(=O)OCC(C)(C)C2` [Example A220], the IC50 is more than 10 µM on KRAS G12V; more than 10 µM on KRAS G12S; 1 to 10 µM and > 10 µM on KRAS G12D; more than 1 µM with NCI-H358 (K-Ras G12C) (Homo sapiens, NCI-H358, 120 h); more than 10 µM at KRAS WT; 0.1 to 1 µM and 1 to 10 µM on K-Ras G12C. For the same compound, the concentration for half-maximal inhibition (IC50) at K-Ras G13C is 0.1 to 1 µM. Also, the EC50 in [1] (Homo sapiens, NCI-H358) is less than 5 µM.

Take `CCn1c(-c2ccccc2CCOC)c2c3cc(ccc31)-c1cc(O)cc(c1)C[C@H](NC(=O)[C@H](C(C)C)N(C)C(=O)c1ccc(NC(=O)/C=C/CN(C)C)cn1)C(=O)N1CCC[C@H](N1)C(=O)OCC(C)(C)C2` [Example A224]: the IC50 on KRAS G12V was 1 to 10 µM and > 10 µM; on KRAS G12S it was more than 10 µM; at KRAS G12D, 1 to 10 µM; with NCI-H358 (K-Ras G12C) (Homo sapiens, NCI-H358, 120 h), more than 1 µM; on KRAS WT it was more than 10 µM; on K-Ras G12C, 0.1 to 1 µM and 1 to 10 µM. Also, the IC50 at K-Ras G13C was 0.01 to 0.1 µM and 0.1 to 1 µM. In addition, the EC50 in experiment [1] (Homo sapiens, NCI-H358) was less than 5 µM.

On to `CCn1c(-c2cccnc2[C@H](C)OC)c2c3cc(ccc31)-c1cc(O)cc(c1)C[C@H](NC(=O)[C@H](C(C)C)N(C)C(=O)[C@H]1CCN(C(=O)C#CC3(N(C)C)COC3)C1)C(=O)N1CCC[C@H](N1)C(=O)OCC(C)(C)C2` [Example A337], for which the IC50 on KRAS G12S was 0.1 to 1 µM; on NRAS G12C, less than 0.01 µM; at KRAS G12D it was 1 to 10 µM; with NCI-H358 (K-Ras G12C), less than 0.01 µM; on K-Ras G12C it was less than 0.01 µM. In addition, the EC50 in [1] is less than 5 µM.

What is called IC50 is the concentration that gives 50% inhibition. Usually EC50 stands for the concentration that produces a half-maximal response.
